Like-named read-outs stand apart in the source and are kept apart here. A value given as a limit tells only on which side of the number the result lay.

Assay [1] concerns HCV genotype 1b (Con1) replicon in HUH-7 cells. As to the kind of experiment: HCV replicon luciferase reporter assay, genotype 1b. It counts as cell-based. To be noted: Hepatitis C virus, 72 h, HCV genotype 1b replicon luciferase, 3 days incubation, read-out: LE_1b (EC50, range). The source says: An HCV replicon whole cell system was established as described by Lohmann V, Korner F, Koch J, Herian U, Theilmann L, Bartenschlager R., Science 285(5424):110-3 (1999) and modified to introduce a luciferase reporter, as first described by Krieger et al (Krieger N, Lohmann V, and Bartenschlager R, J. Virol. 75(10):4614-4624 (2001)). CDNA encoding a humanized form of the Renilla luciferase gene and a linker sequence fused directly to the 3′-end of the luciferase gene were introduced into the replicon construct using an Asc1 restriction site located in core, directly upstream of the neomycin marker gene. The adaptive mutation at position 1179 (serine to isoleucine) was also introduced (Blight K J, Kolykhalov, A A, Rice, C M, Science 290(5498):1972-1974). A stable cell line constitutively expressing this HCV replicon construct was generated by first linearizing plasmid DNAs with ScaI. RNA transcripts were synthesized in vitro using the T7 MegaScript transcription kit (Ambion, Austin, Tex.) according to manufacturer's directions. In vitro transcripts of the cDNA were transfected into the human hepatoma cell line, HUH-7. […] Resulting cell lines were characterized for positive and negative strand RNA production and protein production over time. […]
(§1) HCV replicon luciferase assays were developed to monitor the inhibitory effects of compounds described in the disclosure on HCV genotypes 1a and 1b viral replication. HUH-7 cells, constitutively expressing the HCV replicon, were grown in Dulbecco's Modified Eagle Media (DMEM) (Gibco-BRL) containing 10% Fetal calf serum (FCS) (Sigma) and 1 mg/mL G418 (Gibco-BRL). Compounds were serially diluted 3 folds in DMSO for a twenty-point titration and subsequently transferred to sterile 384-well tissue-culture treated plates (Corning cat #3571). The plates were then seeded with 50 μL of cells at a density of 3.0×10^3 cells/well in DMEM containing 4% FCS (final DMSO concentration at 0.5%). After 3 days incubation at 37° C., cells were analyzed for Renilla Luciferase activity using the EnduRen as substrate (Promega cat #E6485). The EnduRen substrate was diluted in DMEM and then added to the plates to a final concentration of 7.5 μM. The plates were incubated for 2 hrs at 37° C. and then read immediately for 30 seconds with Viewlux Imager (PerkinElmer) using a luminescence program. To assess cytotoxicity of compounds, CC50 values were generated by multiplexing the EnduRen-containing plates with Cell Titer-Blue (Promega, cat # G8082). Cell-Titer Blue (3 μL) was added to each well and incubated for 8 hrs at 37° C. The fluorescence signal from each well was read, with an excitation wavelength at 525/10 nm and an emission wavelength of 598/10 nm, using the Viewlux Imager.
(§2) The EC50 values for compounds were calculated by using a four-parameter logistic equation: y=A+((B−A)/(1+((C/x)^D))), where A and B denotes minimal and maximal % inhibition, respectively, C is the EC50, D is the hill slope and x represents compound concentration.

Assay [2] relates to HCV genotype 1a (H77 strain) replicon in HUH-7 cells. As to the kind of experiment: HCV replicon luciferase reporter assay, genotype 1a. It counts as cell-based. The note with it: Hepatitis C virus, Huh-7, 72 h, HCV genotype 1a replicon luciferase, 3 days incubation, read-out: LE_1a (EC50, range).
Source text: An HCV replicon whole cell system was established as described by Lohmann V, Korner F, Koch J, Herian U, Theilmann L, Bartenschlager R., Science 285(5424):110-3 (1999) and modified to introduce a luciferase reporter, as first described by Krieger et al (Krieger N, Lohmann V, and Bartenschlager R, J. Virol. 75(10):4614-4624 (2001)). CDNA encoding a humanized form of the Renilla luciferase gene and a linker sequence fused directly to the 3′-end of the luciferase gene were introduced into the replicon construct using an Asc1 restriction site located in core, directly upstream of the neomycin marker gene. The adaptive mutation at position 1179 (serine to isoleucine) was also introduced (Blight K J, Kolykhalov, A A, Rice, C M, Science 290(5498):1972-1974). A stable cell line constitutively expressing this HCV replicon construct was generated by first linearizing plasmid DNAs with ScaI. RNA transcripts were synthesized in vitro using the T7 MegaScript transcription kit (Ambion, Austin, Tex.) according to manufacturer's directions. In vitro transcripts of the cDNA were transfected into the human hepatoma cell line, HUH-7. […] Resulting cell lines were characterized for positive and negative strand RNA production and protein production over time.
A stable HCV replicon luciferase reporter cell line representing the genotype 1a H77 strain (Yanagi M, Purcell R H, Emerson S U, et al. Transcripts from a single full-length cDNA clone of hepatitis C virus are infectious when directly transfected into the liver of a chimpanzee. Proc Natl Acad Sci USA 1997; 94(16):8738-8743) was generated as described previously for the genotype 1b (Con1) replicon luciferase cell line. The replicon construct was modified by introducing mutations were introduced into the genes encoding the NS3 helicase domain (proline replaced by leucine at position 1496) and NS5A (serine to isoleucine at position 2204) to improve replication in cell culture.
as §1, §2
In general terms: A replicon is a self-replicating genome or part of one, used to study replication in cells.

As to `CC[C@@H]1C[C@H](C)CC/C=C\[C@@H]2C[C@@]2(C(=O)NS(=O)(=O)C2CC2)NC(=O)[C@@H]2C[C@@H](Oc3ncc(OC)c4ccccc34)CN2C(=O)[C@H]1NC(=O)OC(C)(C)C` [Compound 4007, tert-butyl (2R,6S,7R,9R,13aS,14aR,16aS,Z)-14a-(cyclopropylsulfonylcarbamoyl)-7-ethyl-2-(4-methoxyisoquinolin-1-yloxy)-9-methyl-5,16-dioxo-1,2,3,5,6,7,8,9,10,11,13a,14,14a,15,16,16a-hexadecahydrocyclopropa[e]pyrrolo[1,2-a][1,4]diazacyclopentadecin-6-ylcarbamate], the EC50 in assay [1] (class symbols) and in assay [2] (class symbols) was less than 5.46 nM throughout.

For `COc1ccc2c(O[C@@H]3C[C@H]4C(=O)N[C@]5(C(=O)NS(=O)(=O)C6(C)CC6)C[C@H]5/C=C\CC[C@@H](C)C[C@@H](C)[C@H](NC(=O)O[C@@H]5C[C@@H]6C[C@@H]6C5)C(=O)N4C3)nc(-c3ccc(OC(C)C)nc3)cc2c1` [Compound 5229, (1R,3r,5S)-bicyclo[3.1.0]hexan-3-yl ((2R,6S,7R,9R,13aS,14aR,16aS,Z)-2-((3-(6-isopropoxypyridin-3-yl)-6-methoxyisoquinolin-1-yl)oxy)-7,9-dimethyl-14a-(((1-methylcyclopropyl)sulfonyl)carbamoyl)-5,16-dioxo-1,2,3,5,6,7,8,9,10,11,13a,14,14a,15,16,16a-hexadecahydrocyclopropa[e]pyrrolo[1,2-a][1,4]diazacyclopentadecin-6-yl)carbamate], the EC50 in assay [1] (range class) and in assay [2] (range class) was less than 5.46 nM each time.

Regarding `COc1ccc2c(O[C@@H]3C[C@H]4C(=O)N[C@]5(C(=O)NS(=O)(=O)C6(C)CC6)C[C@H]5/C=C\CC[C@H](C)C[C@@H](C)[C@H](NC(=O)O[C@@H]5C[C@@H]6C[C@@H]6C5)C(=O)N4C3)nc(-c3ccc(OC(C)C)nc3)cc2c1` [Compound 5228, (1R,3r,5S)-bicyclo[3.1.0]hexan-3-yl ((2R,6S,7R,9S,13aS,14aR,16aS,Z)-2-((3-(6-isopropoxypyridin-3-yl)-6-methoxyisoquinolin-1-yl)oxy)-7,9-dimethyl-14a-(((1-methylcyclopropyl)sulfonyl)carbamoyl)-5,16-dioxo-1,2,3,5,6,7,8,9,10,11,13a,14,14a,15,16,16a-hexadecahydrocyclopropa[e]pyrrolo[1,2-a][1,4]diazacyclopentadecin-6-yl)carbamate], the EC50 – broadly, the concentration that produces a half-maximal response – was less than 5.46 nM in assay [1] (range class) and 4.82 to 103 nM in assay [2] (range class).

Consider `[2H]C([2H])([2H])C(C)(OC(=O)N[C@@H]1C(=O)N2C[C@H](Oc3nccc4cc(OC)ccc34)C[C@H]2C(=O)N[C@]2(C(=O)NS(=O)(=O)C3(C)CC3)C[C@H]2/C=C\CC[C@H](C)C[C@H]1C)C([2H])([2H])[2H]` [Compound 5176, 1,1,1,3,3,3-hexadeutero-2-methylpropan-2-yl ((2R,6S,7R,9S,13aS,14aR,16aS,Z)-2-((6-methoxyisoquinolin-1-yl)oxy)-7,9-dimethyl-14a-(((1-methylcyclopropyl)sulfonyl)carbamoyl)-5,16-dioxo-1,2,3,5,6,7,8,9,10,11,13a,14,14a,15,16,16a-hexadecahydrocyclopropa[e]pyrrolo[1,2-a][1,4]diazacyclopentadecin-6-yl)carbamate], for which the values for the EC50 in assay [1] (range class) and in assay [2] (range class) were less than 5.46 nM and 4.82 to 103 nM, respectively.

Take `COc1cnc(O[C@@H]2C[C@H]3C(=O)N[C@]4(C(=O)NS(=O)(=O)C5(C)CC5)C[C@H]4/C=C\CC[C@H](C)C[C@@H](C)[C@H](NC(=O)OC(C)(C)C)C(=O)N3C2)c2ccccc12` [Compound 4058, tert-butyl (2R,6S,7R,9S,13aS,14aR,16aS,Z)-2-(4-methoxyisoquinolin-1-yloxy)-7,9-dimethyl-14a-(1-methylcyclopropylsulfonylcarbamoyl)-5,16-dioxo-1,2,3,5,6,7,8,9,10,11,13a,14,14a,15,16,16a-hexadecahydrocyclopropa[e]pyrrolo[1,2-a][1,4]diazacyclopentadecin-6-ylcarbamate]: the EC50 in assay [1] (class symbols) and in assay [2] (class symbols) was less than 5.46 nM in each case.

As to `CCOc1ccc2c(O[C@@H]3C[C@H]4C(=O)N[C@]5(C(=O)NS(=O)(=O)C6(C)CC6)C[C@H]5/C=C\CC[C@H](C)C[C@@H](C)[C@H](NC(=O)O[C@@H]5C[C@@H]6C[C@@H]6C5)C(=O)N4C3)nccc2c1` [Compound 5137, (1R,3r,5S)-bicyclo[3.1.0]hexan-3-yl ((2R,6S,7R,9S,13aS,14aR,16aS,Z)-2-((6-ethoxyisoquinolin-1-yl)oxy)-7,9-dimethyl-14a-(((1-methylcyclopropyl)sulfonyl)carbamoyl)-5,16-dioxo-1,2,3,5,6,7,8,9,10,11,13a,14,14a,15,16,16a-hexadecahydrocyclopropa[e]pyrrolo[1,2-a][1,4]diazacyclopentadecin-6-yl)carbamate], the EC50 in assay [1] (class symbols) and in assay [2] (class symbols) was less than 5.46 nM in each case.

Consider `COc1ccc2c(O[C@@H]3C[C@H]4C(=O)N[C@]5(C(=O)NS(=O)(=O)C6(C)CC6)C[C@H]5/C=C\CC[C@@H](C)C[C@@H](C)[C@H](NC(=O)OC(C)(C)C)C(=O)N4C3)ncc(N3CCN(S(C)(=O)=O)CC3)c2c1` [Compound 4121, tert-butyl (2R,6S,7R,9R,13aS,14aR,16aS,Z)-2-(6-methoxy-4-(4-(methylsulfonyl)piperazin-1-yl)isoquinolin-1-yloxy)-7,9-dimethyl-14a-(1-methylcyclopropylsulfonylcarbamoyl)-5,16-dioxo-1,2,3,5,6,7,8,9,10,11,13a,14,14a,15,16,16a-hexadecahydrocyclopropa[e]pyrrolo[1,2-a][1,4]diazacyclopentadecin-6-ylcarbamate], for which the EC50 in assay [1] (class symbols) and in assay [2] (class symbols) was less than 5.46 nM in each case.

As to `C[C@@H]1CC/C=C\[C@@H]2C[C@@]2(C(=O)NS(=O)(=O)C2(CF)CC2)NC(=O)[C@@H]2C[C@@H](Oc3nccc4c5c(ccc34)OCCO5)CN2C(=O)[C@@H](NC(=O)OC(C)(C)C)[C@H](C)C1` [Compound 5321, tert-butyl ((2R,6S,7R,9R,13aS,14aR,16aS,Z)-2-((2,3-dihydro-[1,4]dioxino[2,3-f]isoquinolin-7-yl)oxy)-14a-(((1-(fluoromethyl)cyclopropyl)sulfonyl)carbamoyl)-7,9-dimethyl-5,16-dioxo-1,2,3,5,6,7,8,9,10,11,13a,14,14a,15,16,16a-hexadecahydrocyclopropa[e]pyrrolo[1,2-a][1,4]diazacyclopentadecin-6-yl)carbamate], the EC50 in assay [1] (range class) and in assay [2] (range class) was less than 5.46 nM in each case.

These data come from patent US9527885B2, “Hepatitis C virus inhibitors” (BRISTOL-MYERS SQUIBB COMPANY, priority 2011, dated 2016).
